Molecular target: T1, sortase A (SrtA) (Staphylococcus aureus, UniProt Q2FV99)
T1 sequence (Q2FV99 1-206): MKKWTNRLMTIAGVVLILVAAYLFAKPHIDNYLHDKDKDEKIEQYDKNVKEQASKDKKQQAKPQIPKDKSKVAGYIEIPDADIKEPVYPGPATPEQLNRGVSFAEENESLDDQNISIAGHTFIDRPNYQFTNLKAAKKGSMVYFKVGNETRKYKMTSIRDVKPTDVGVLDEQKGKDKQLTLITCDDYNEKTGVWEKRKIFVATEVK
Experiment: microscale thermophoresis with labeled purified SrtA
Format: binding

- Kd: 189 µM
Structure (SMILES): Nc1c(Cl)cccc1C(=O)Nc1ccccc1C(=O)O [compound 5, 2-(2-amino-3-chloro-benzoylamino)-benzoic acid]

Reference: article PMC9016125 (The Journal of Antibiotics, 2022)
